Measured values taken from US20250346845A1, “CELL-[…]” (TOPPAN HOLDINGS INC., priority 2023, published 2025).

Key:
Assay type in all cases: cell-based, human
Conditions in all cases: drug added day 4, read day 7, general-purpose medium
HT29 cells [1] = experiment: Anti-cancer drug evaluation, HT29 cells on stromal cell layer, 3D culture method, EpCAM immunofluorescence
Description: 2.0×10^6 NHDFs and 3.0×10^4 HUVECs were suspended in an equal volume mixture of 150 μL of 0.2 mg/mL heparin/50 mM Tris-HCl buffer (pH 7.4) and 150 μL of 0.2 mg/mL collagen/5 mM acetate solution (pH 3.7). The resulting mixture was centrifuged at 1,000×g for 1 minute at room temperature to obtain a viscous mass. The obtained viscous mass was suspended in DMEM containing 10% FBS. The entire suspension was seeded in a 24-well Transwell culture insert and centrifuged at 400×g (gravitational acceleration) at room temperature for 1 minute. As a result, a cell layer (i.e., a cell layer containing cells forming the stroma) was formed on the membrane of the Transwell culture insert.
Subsequently, HT29 cells were seeded on the cell layer at 1×10^3 cells/well and cultured in the general-purpose medium shown in Table 4 above. On the fourth day after the start of the culture, an anti-cancer drug SN-38 (Selleck, S4908) was added to the medium in each well at a concentration of 0, 0.01, 0.1, 1 or 10 μM.
On the seventh day after the start of culture, the cells were fixed and stained for EpCAM with immunofluorescence staining, and the stained cells were counted as HT29 cells. More specifically, the area of fluorescence emission from cancer cells was calculated using a microscope system (Operetta CLS, PerkinElmer) in the fluorescence mode (fluorescence: Alexa 647). The cell viability was calculated using the following formula (3) to evaluate the drug efficacy.

HT29 cells [2] = experiment: Anti-cancer drug evaluation, HT29 cells, 2D culture method, ATP assay
Description: (§1) On the fourth day after the start of the culture, an anti-cancer drug SN-38 (Selleck, S4908) was added to the medium in each well at a concentration of 0, 0.01, 0.1, 1 or 10 μM. On the seventh day after the start of culture, the number of HT29 cells was counted by ATP assay. The cell viability was calculated using the above formula (2) to evaluate the drug efficacy.

HT29 cells [3] = experiment: Anti-cancer drug evaluation, HT29 cells cultured using stromal stamp, ATP assay
Description: HT29 (ATCC, HTB-38), a human colon adenocarcinoma cell line, was seeded in the third vessel (24-well plate) in Table 3 above at 1×10^3 cells/well. The stromal stamp prepared in Example 1 was then placed on each well.
as §1, with “culture, the stromal stamps were removed and the number of” for “culture, the number of”, “using the following formula (2)” for “using the above formula (2)”

## CCc1c2c(nc3ccc(O)cc13)-c1cc3c(c(=O)n1C2)COC(=O)[C@]3(O)CC [SN-38]
HT29 cells [1]; 0.01 μM
  Cell viability (%): 97.8 ± 20.04%
HT29 cells [1]; 0.1 μM
  Cell viability (%): 72.87 ± 14.57%
HT29 cells [1]; 1 μM
  Cell viability (%): 54.21 ± 13.05%
HT29 cells [1]; 10 μM
  Cell viability (%): 34.2 ± 9.47%
HT29 cells [2]; 0.01 μM
  Cell viability (%): 78.3 ± 9.45%
HT29 cells [2]; 0.1 μM
  Cell viability (%): 54.3 ± 5.45%
HT29 cells [2]; 1 μM
  Cell viability (%): 35 ± 3.24%
HT29 cells [2]; 10 μM
  Cell viability (%): 21.3 ± 4.23%
HT29 cells [3]; 0.01 μM
  Cell viability (%): 103.3 ± 14.5%
HT29 cells [3]; 0.1 μM
  Cell viability (%): 72.87 ± 14.57%
HT29 cells [3]; 1 μM
  Cell viability (%): 49.3 ± 13.05%
HT29 cells [3]; 10 μM
  Cell viability (%): 36.5 ± 10.24%
